We go through 21 molecules from paper PMC6600469, “Synthesis and Biological Evaluation of NH2-Sulfonyl Oseltamivir Analogues as Influenza Neuraminidase Inhibitors” (Molecules, 2019).

A value given as a limit tells only on which side of the number the result lay.

One data set has as its system mutant NAs. The following applies: cited from earlier work.
Data set [1] has as its target H5N1 neuraminidase (A/Anhui/2005) (Influenza A virus (H5N1), UniProt A0A0C5AGB3). Nature of the data set: biochemical. Conditions: for inhibition at 10 µM / inhibition at 100 µM: read-out: inhibition rate against NA from H5N1 subtype. The class given is biochemical, influenza A H5N1 (A/Anhui/2005).
For data set [2], the system named is NAs from H5N1 (A/Chicken/China/1220/2012). Conditions: read-out: IC50 against NAs from H5N1; cited from earlier work.
Data set [3] in a line: Metabolic stability in human liver microsomes in vitro. Conditions: for Remaining (T = 60 min): human liver microsomes 0.5 mg/mL, 37 °C, 60 min incubation; for half-life: human, liver microsomes. (Liver microsomes are vesicles of endoplasmic reticulum, rich in cytochrome P450 enzymes.)
The next data set concerns the target neuraminidase. Conditions: cited from earlier work.

With `CCC(CC)O[C@@H]1C=C(C(=O)O)C[C@H](NC(C)=O)[C@H]1NC(C)=O` [D], in the data set on mutant NAs, the “inhibitory activities against mutant NAs” value is recorded as “enhanced inhibitory activities”.
Regarding `CCC(CC)O[C@@H]1C=C(C(=O)O)C[C@H](N)[C@H]1NC(C)=O` [OC, oseltamivir carboxylate, reference compound], the “inhibition rate against NA from H5N1 subtype” value was found to be 91.0% in data set [1] (10 µM) and 95.0% in data set [1] (100 µM).
As a reminder, the IC50 is the concentration at which inhibition is half-maximal. In the case of `CCC(CC)O[C@@H]1C=C(C(=O)O)C[C@H](NCc2ccc(-c3cccs3)cc2)[C@H]1NC(C)=O` [B], in data set [2], the IC50 was 2.1 nM.
For orientation: inhibition means the relative decrease from the control value, in per cent. In general, melting point refers to the temperature, or range, at which the solid turns liquid. `CCCCS(=O)(=O)N[C@H]1CC(C(=O)O)=C[C@@H](OC(CC)CC)[C@@H]1NC(C)=O` [4d, (3R, 4R, 5S)-4-acetamido-5-(n-butylsulfonyl)amino-3-(pentan-3-yloxy) cyclohex-1-enecarboxylic acid] showed a melting point of 183.3 to 184.4 °C. Also, in data set [1], the inhibition at 10 µM is 30.3% and the inhibition at 100 µM came out at 53.5%.
`CCC(CC)O[C@@H]1C=C(C(=O)O)C[C@H](NS(=O)(=O)c2ccc(NC(C)=O)cc2)[C@H]1NC(C)=O` [4g, (3R, 4R, 5S)-4-acetamido-5-((4-(acetamido)pheny)sulfonyl)amino-3-(pentan-3-yloxy)cyclohex-1-enecarboxylic acid] displayed a melting point of 236.7 to 238.6 °C. Besides, the “inhibition rate against NA from H5N1 subtype” value in data set [1] (100 µM) was “little inhibition”.
For the molecule `CCC(CC)O[C@@H]1C=C(C(=O)O)C[C@H](NS(=O)(=O)c2ccc(N)cc2)[C@H]1NC(C)=O` [6k, (3R, 4R, 5S)-4-acetamido-5-((4-aminophenyl)sulfonyl)amino-3-(pentan-3-yloxy)cyclohex-1-enecarboxylic acid], the melting point lay in the range of 176.7 to 181.4 °C. Also, the inhibition at 100 µM in data set [1] was found to be 12.5%.
Take `CCC(CC)O[C@@H]1C=C(C(=O)O)C[C@H](NS(=O)(=O)CC)[C@H]1NC(C)=O` [4b, (3R, 4R, 5S)-4-acetamido-5-(ethylsulfonyl)amino-3-(pentan-3-yloxy)cyclohex-1-enecarboxylic acid]: the melting point lay within 187.7 to 190 °C. Further, in data set [1], the inhibition at 10 µM is 50.3% and the inhibition at 100 µM was found to be 85.1%.
The term half-life denotes the time in which the quantity being followed falls by half. Higher therefore signals slow loss. Turning to `C[C@]12CC[C@H]3[C@@H](CCC4=CC(=O)CC[C@@]43C)[C@@H]1CC[C@@H]2O` [Testosterone, testosterone], in data set [3], the “Remaining (T = 60 min)” value came to 3.8% and the half-life was 12.5 min.
Taken in the same sequence, the figures for `O=C(O)Cc1ccccc1Nc1c(Cl)cccc1Cl` [Diclofenac, diclofenac] were 1.1% and 9.2 min.
For `CCC(CC)O[C@@H]1C=C(C(=O)O)C[C@H](NS(=O)(=O)c2cccc([N+](=O)[O-])c2)[C@H]1NC(C)=O` [4j, (3R, 4R, 5S)-4-acetamido-5-((3-nitrophenyl)sulfonyl)amino-3-(pentan-3-yloxy)cyclohex-1-enecarboxylic acid], the melting point was 114.3 to 115.9 °C. For the same molecule, in data set [1], the inhibition at 10 µM came out at 20.3% and the inhibition at 100 µM was 33.8%.
Taken in the same sequence, the figures for `CCC(CC)O[C@@H]1C=C(C(=O)O)C[C@H](NS(=O)(=O)C(F)(F)F)[C@H]1NC(C)=O` [4f, (3R, 4R, 5S)-4-acetamido-5-((trifluoromethyl)sulfonyl)amino-3-(pentan-3-yloxy)cyclohex-1-enecarboxylic acid] were 193.1 to 195.4 °C, 24.8% and 49.7%.
On to `CCC(CC)O[C@@H]1C=C(C(=O)O)C[C@H](NCc2ccc(-c3ccccc3)cc2)[C@H]1NC(C)=O` [A], for which the IC50 in data set [2] was 1.9 nM.
For `CCC(CC)O[C@@H]1C=C(C(=O)O)C[C@H](NS(C)(=O)=O)[C@H]1NC(C)=O` [4a, (3R, 4R, 5S)-4-acetamido-5-(methylsulfonyl)amino-3-(pentan-3-yloxy) cyclohex-1-enecarboxylic acid], in data set [1], the inhibition at 10 µM stood at 73.9% and the inhibition at 100 µM is 91.8%. In data set [3], the “Remaining (T = 60 min)” value was 101.6% and the half-life was over 145 min.
`CCC(CC)O[C@@H]1C=C(C(=O)O)C[C@H](NS(=O)(=O)c2ccc([N+](=O)[O-])cc2)[C@H]1NC(C)=O` [4k, (3R, 4R, 5S)-4-acetamido-5-((4-nitrophenyl)sulfonyl)amino-3-(pentan-3-yloxy)cyclohex-1-enecarboxylic acid] yielded a melting point of 187.4 to 189.2 °C. In addition, in data set [1], the inhibition at 10 µM turned out to be 0.5% and the inhibition at 100 µM is 38.9%.
The molecule `CCC(CC)O[C@@H]1C=C(C(=O)O)C[C@H](NS(=O)(=O)c2cccc(N)c2)[C@H]1NC(C)=O` [6j, (3R, 4R, 5S)-4-acetamido-5-((3-aminophenyl)sulfonyl)amino-3-(pentan-3-yloxy)cyclohex-1-enecarboxylic acid] showed a melting point of 177.4 to 178.1 °C. Besides, in data set [1], the inhibition at 10 µM was found to be 37.3% and the inhibition at 100 µM is 52.7%.
The corresponding values for `CCCCCS(=O)(=O)N[C@H]1CC(C(=O)O)=C[C@@H](OC(CC)CC)[C@@H]1NC(C)=O` [4e, (3R, 4R, 5S)-4-acetamido-5-(n-pentylsulfonyl)amino-3-(pentan-3-yloxy)cyclohex-1-enecarboxylic acid] are 179.1 to 182.8 °C, 28.5% and 50.5%.
What is called Ki is a dissociation constant, usually derived from enzyme kinetics or from competition with a known ligand. In the case of `CCC(CC)O[C@@H]1CC(C(=O)O)=C[C@H](n2cc(C(O)CC)nn2)[C@H]1NC(C)=O` (stereo partly shown) [C], the Ki on neuraminidase was 72 nM.
As for `CCC(CC)O[C@@H]1C=C(C(=O)O)C[C@H](NS(=O)(=O)c2ccccc2N)[C@H]1NC(C)=O` [6i, (3R, 4R, 5S)-4-acetamido-5-((2-aminophenyl)sulfonyl)amino-3-(pentan-3-yloxy)cyclohex-1-enecarboxylic acid], the melting point was 161.8 to 164 °C. In addition, in data set [1], the inhibition at 10 µM came to 63.8% and the inhibition at 100 µM is 86.6%.
Taken in the same sequence, the figures for `CCCS(=O)(=O)N[C@H]1CC(C(=O)O)=C[C@@H](OC(CC)CC)[C@@H]1NC(C)=O` [4c, (3R, 4R, 5S)-4-acetamido-5-(n-propylsulfonyl)amino-3-(pentan-3-yloxy)cyclohex-1-enecarboxylic acid] were 196.3 to 198.6 °C, 43.2% and 56.5%.
With `CCC(CC)O[C@@H]1C=C(C(=O)O)C[C@H](NS(=O)(=O)c2ccc(C(F)(F)F)cc2)[C@H]1NC(C)=O` [4h, (3R, 4R, 5S)-4-acetamido-5-((4-(trifluoromethyl)phenyl)sulfonyl)amino-3-(pentan-3-yloxy)cyclohex-1-enecarboxylic acid], in data set [1], the inhibition at 10 µM came to 40.4% and the inhibition at 100 µM was 79.2%.
Taken in the same sequence, the figures for `CCC(CC)O[C@@H]1C=C(C(=O)O)C[C@H](NS(=O)(=O)c2ccccc2[N+](=O)[O-])[C@H]1NC(C)=O` [4i, (3R, 4R, 5S)-4-acetamido-5-((2-nitrophenyl)sulfonyl)amino-3-(pentan-3-yloxy)cyclohex-1-enecarboxylic acid] were 32% and 70.1%.
